In ChEMBL document CHEMBL4732079, “Design, synthesis and antitumor evaluation of new 1,8-naphthalimide derivatives targeting nuclear DNA” (Eur J Med Chem, 2021):
Active and inactive are the calls of the source. The rule behind the calls is not given here.

Experiments:
[1] = tested on: MGC-803; test: Antitumor activity against human MGC-803 cells xenografted in BALB/c nude mice assessed as tumor increment rate at 5 mg/kg, ip measured after 21 days relative to control; type: functional; conditions: time 21 day
[2] = tested on: MGC-803; test: Induction of apoptosis in human MGC-803 cells assessed as late apoptotic cells at 2 uM after 24 hrs (reference value: 2.6%); type: functional
[3] = tested on: DNA; test: Binding affinity to Escherichia coli pBR322 DNA assessed as intercalation at 10 to 100 uM by agarose gel electrophoresis assay; type: nucleic-acid assay; conditions: dose 10-100 µM
[4] = tested on: MGC-803; test: Upregulation of p21 expression in human MGC-803 cells at 0.5 to 1 uM by Western blot analysis; type: functional, cell-based; conditions: dose 0.5-1 µM
[5] = Toxicity in BALB/c nude mouse xenografted with human MGC-803 cells assessed effect on body weight at 5 to 15 mg/kg, ip measured after 21 days; type: organism-based; conditions: in vivo, 504 h, dose 5-15 mg/kg, time 21 day
[6] = tested on: MGC-803; test: Induction of cell cycle arrest in human MGC-803 cells assessed as accumulation of cells at G1 phase at 0.25 uM for 24 hrs (reference value: 62.6%); type: functional
[7] = tested on: MGC-803; test: Induction of cell cycle arrest in human MGC-803 cells assessed as accumulation of cells at S phase at 1 uM for 24 hrs (Rvb =20.23%); type: functional
[8] = tested on: DNA; test: Induction of DNA damage in human MGC-803 cells assessed as increase in p-H2AX levels at 0.5 to 1 uM by Western blot analysis; type: cell-based; conditions: dose 0.5-1 µM
[9] = tested on: MGC-803; test: Antitumor activity against human MGC-803 cells xenografted in BALB/c nude mice assessed as tumor inhibitory rate at 5 mg/kg, ip measured after 21 days relative to control; type: functional; conditions: Mus musculus, MGC-803, ip, 504 h, time 21 day
[10] = tested on: DNA; test: Induction of DNA damage in human MGC-803 cells assessed as long DNA tails at 1 uM after 24 hrs by comet assay; type: cell-based
[11] = tested on: MGC-803; test: Downregulation of cyclinE expression in human MGC-803 cells at 0.5 to 1 uM by Western blot analysis; type: functional, cell-based; conditions: dose 0.5-1 µM
[12] = tested on: MGC-803; test: Induction of apoptosis in human MGC-803 cells assessed as early apoptotic cells at 2 uM after 24 hrs (reference value: 2.9%); type: functional
[13] = tested on: MGC-803; test: Induction of apoptosis in human MGC-803 cells assessed as late apoptotic cells at 1 uM after 24 hrs (reference value: 2.6%); type: functional
[14] = tested on: SMMC-7721; test: Antiproliferative activity against human SMMC-7721 cells by MTT assay; type: functional, cell-based
[15] = tested on: MGC-803; test: Induction of apoptosis in human MGC-803 cells assessed as necrotic cells at 1 uM after 24 hrs (reference value: 0.9%); type: functional
[16] = tested on: MGC-803; test: Antitumor activity against human MGC-803 cells xenografted in BALB/c nude mice assessed as tumor inhibitory rate at 15 mg/kg, ip measured after 21 days relative to control; type: functional; conditions: Mus musculus, MGC-803, ip, 504 h, time 21 day
[17] = tested on: MGC-803; test: Induction of apoptosis in human MGC-803 cells assessed as decrease in Bcl2 expression at 0.5 to 1 uM by Western blot analysis; type: functional, cell-based; conditions: dose 0.5-1 µM
[18] = tested on: MGC-803; test: Induction of apoptosis in human MGC-803 cells assessed as increase in Bax expression at 0.5 to 1 uM by Western blot analysis; type: functional, cell-based; conditions: dose 0.5-1 µM
[19] = tested on: SK-OV-3; test: Antiproliferative activity against human SK-OV-3 cells by MTT assay; type: functional, cell-based
[20] = tested on: MGC-803; test: Induction of cell cycle arrest in human MGC-803 cells assessed as accumulation of cells at S phase at 0.25 uM for 24 hrs (Rvb =20.23%); type: functional
[21] = tested on: MGC-803; test: Induction of apoptosis in human MGC-803 cells assessed as late apoptotic cells at 0.5 uM after 24 hrs (reference value: 2.6%); type: functional
[22] = tested on: MGC-803; test: Induction of cell cycle arrest in human MGC-803 cells assessed as accumulation of cells at G2 phase at 0.25 uM for 24 hrs (reference value: 17.61%); type: functional
[23] = tested on: MGC-803; test: Induction of apoptosis in human MGC-803 cells assessed as increase in caspase-3 expression at 0.5 to 1 uM by Western blot analysis; type: functional, cell-based; conditions: dose 0.5-1 µM
[24] = tested on: MGC-803; test: Induction of apoptosis in human MGC-803 cells assessed as increase in caspase-9 expression at 0.5 to 1 uM by Western blot analysis; type: functional, cell-based; conditions: dose 0.5-1 µM
[25] = tested on: DNA; test: Induction of DNA damage in human MGC-803 cells assessed as increase in Cdc25A levels at 0.5 to 1 uM by Western blot analysis; type: cell-based; conditions: dose 0.5-1 µM
[26] = tested on: MGC-803; test: Induction of apoptosis in human MGC-803 cells assessed as viable cells at 0.5 uM after 24 hrs (reference value: 93.6%); type: functional; conditions: read-out: Activity
[27] = tested on: MGC-803; test: Induction of cell cycle arrest in human MGC-803 cells assessed as accumulation of cells at G1 phase at 0.5 uM for 24 hrs (reference value: 62.6%); type: functional
[28] = tested on: DNA; test: Induction of DNA damage in human MGC-803 cells assessed as increase in p-CHK2 levels at 0.5 to 1 uM by Western blot analysis; type: cell-based; conditions: dose 0.5-1 µM
[29] = tested on: MGC-803; test: Induction of cell cycle arrest in human MGC-803 cells assessed as accumulation of cells at S phase at 0.5 uM for 24 hrs (Rvb =20.23%); type: functional
[30] = tested on: A549; test: cells; conditions: Homo sapiens
Description: Antiproliferative activity against human A549 cells by MTT assay

[31] = tested on: MGC-803; test: Induction of apoptosis in human MGC-803 cells assessed as viable cells at 1 uM after 24 hrs (reference value: 93.6%); type: functional; conditions: read-out: Activity
[32] = tested on: MGC-803; test: Induction of cell cycle arrest in human MGC-803 cells assessed as accumulation of cells at G2 phase at 1 uM for 24 hrs (reference value: 17.61%); type: functional
[33] = tested on: DNA; test: Induction of DNA damage in human MGC-803 cells assessed as increase in p-ATM levels at 0.5 to 1 uM by Western blot analysis; type: cell-based; conditions: dose 0.5-1 µM
[34] = tested on: MGC-803; test: Effect on CDK2 expression in human MGC-803 cells at 0.5 to 1 uM by Western blot analysis; type: functional, cell-based; conditions: dose 0.5-1 µM
[35] = tested on: MGC-803; test: Induction of apoptosis in human MGC-803 cells assessed as early apoptotic cells at 1 uM after 24 hrs (reference value: 2.9%); type: functional
[36] = tested on: MGC-803; test: Induction of apoptosis in human MGC-803 cells assessed as viable cells at 2 uM after 24 hrs (reference value: 93.6%); type: functional; conditions: read-out: Activity
[37] = tested on: MGC-803; test: Antitumor activity against human MGC-803 cells xenografted in BALB/c nude mice assessed as tumor increment rate at 15 mg/kg, ip measured after 21 days relative to control; type: functional; conditions: time 21 day
[38] = tested on: MGC-803; test: Induction of apoptosis in human MGC-803 cells assessed as early apoptotic cells at 0.5 uM after 24 hrs (reference value: 2.9%); type: functional
[39] = tested on: MGC-803; test: Induction of apoptosis in human MGC-803 cells assessed as necrotic cells at 0.5 uM after 24 hrs (reference value: 0.9%); type: functional
[40] = tested on: MGC-803; test: Antiproliferative activity against human MGC-803 cells by MTT assay; type: functional, cell-based
[41] = tested on: MGC-803; test: Induction of cell cycle arrest in human MGC-803 cells assessed as accumulation of cells at G1 phase at 1 uM for 24 hrs (reference value: 62.6%); type: functional

Which results are given for `CN(C)CCN1C(=O)c2cccc3c(N4CCN(C(=O)c5ccccc5)CC4)c([N+](=O)[O-])cc(c23)C1=O`?
T/C [1]: 59.8%; Activity [2]: 20.5%; Activity [3]: Active; Activity [4]: Active; Activity [5]: Non-Toxic; Activity [6]: 50.91%; Activity [7]: 71.16%; Activity [8]: Active; inhibition in vivo at 5 mg/kg [9]: 40.1%; Activity [10]: Active; inhibition [11]: Active; Activity [12]: 32%; Activity [13]: 11.2%; IC50 [14]: 1.57 µM; Activity [15]: 4.7%; inhibition in vivo at 15 mg/kg [16]: 52.8%; Activity [17]: Active; Activity [18]: Active; IC50 [19]: 1.88 µM; Activity [20]: 37.8%; Activity [21]: 11.6%; Activity [22]: 11.29%; Activity [23]: Active; Activity [24]: Active; Activity [25]: Active; viability at 0.5 µM [26]: 74.9%; Activity [27]: 27.88%; Activity [28]: Active; Activity [29]: 69.18%; IC50 [30]: 0.41 µM; viability at 1 µM [31]: 66.5%; Activity [32]: 0.92%; Activity [33]: Active; Activity [34]: Active; Activity [35]: 17.5%; viability at 2 µM [36]: 41.9%; T/C [37]: 47.1%; Activity [38]: 10.1%; Activity [39]: 3.4%; IC50 [40]: 0.87 µM; Activity [41]: 27.92%

For `Cc1ccc(S(=O)(=O)N2CCN(c3c([N+](=O)[O-])cc4c5c(cccc35)C(=O)N(CCN(C)C)C4=O)CC2)cc1`, which T/C [1] is on record?
The T/C was 52%.

What about the Activity [2] of the same compound?
The Activity was 10.2%.

And the Activity [3]?
The Activity was “Active”.

And the Activity [4]?
The Activity was “Active”.

And the Activity [5]?
The Activity was “Non-Toxic”.

And the Activity [6]?
The Activity was 53.73%.

What about the Activity [7] of the same compound?
Its Activity is 75.18%.

And the Activity [8]?
The Activity was “Active”.

What about the inhibition in vivo at 5 mg/kg [9] of the same compound?
Its inhibition in vivo at 5 mg/kg is 41.9%.

What about the Activity [10] of the same compound?
Its Activity is “Active”.

And the inhibition [11]?
Its inhibition is “Active”.

And the Activity [12]?
Its Activity is 16.8%.

What about the Activity [13] of the same compound?
The Activity was 9.8%.

What about the IC50 [14] of the same compound?
The IC50 was 2.71 µM.

And the Activity [15]?
Its Activity is 4.2%.

And the inhibition in vivo at 15 mg/kg [16]?
Its inhibition in vivo at 15 mg/kg is 61.7%.

And the Activity [17]?
Its Activity is “Active”.

What about the Activity [18] of the same compound?
Its Activity is “Active”.

What about the IC50 [19] of the same compound?
Its IC50 is 0.32 µM.

And the Activity [20]?
Its Activity is 40.4%.

And the Activity [21]?
Its Activity is 7.6%.

What about the Activity [22] of the same compound?
Its Activity is 5.83%.

And the Activity [23]?
Its Activity is “Active”.

And the Activity [24]?
Its Activity is “Active”.

What about the Activity [25] of the same compound?
Its Activity is “Active”.

What about the viability at 0.5 µM [26] of the same compound?
The viability at 0.5 µM was 78.5%.

What about the Activity [27] of the same compound?
The Activity was 55.85%.

And the Activity [28]?
Its Activity is “Active”.

And the Activity [29]?
The Activity was 43.96%.

And the IC50 [30]?
Its IC50 is 0.27 µM.

And the viability at 1 µM [31]?
The viability at 1 µM was 72.9%.

And the Activity [32]?
The Activity was 0%.

What about the Activity [33] of the same compound?
The Activity was “Active”.

What about the Activity [34] of the same compound?
The Activity was “Active”.

What about the Activity [35] of the same compound?
The Activity was 13.1%.

What about the viability at 2 µM [36] of the same compound?
The viability at 2 µM was 66.9%.

What about the T/C [37] of the same compound?
Its T/C is 38.4%.

And the Activity [38]?
The Activity was 9.7%.

What about the Activity [39] of the same compound?
Its Activity is 4.2%.

And the IC50 [40]?
The IC50 was 1.42 µM.

What about the Activity [41] of the same compound?
The Activity was 24.82%.
